Experimental data as given in patent publication US7173014B2, “HIV-specific synthetic oligonucleotides and methods of their use” (priority 1997, dated 2007).
Read-outs that look alike come from different tables or passages of the source.

Key:
[1] = system: clinical strains of HIV-1; test: AZT and ddI sensitivity of clinical strains of HIV-1 (Table 3); assay type: cell-based
Procedure: To determine the preclinical range of anti-HIV activity of various oligonucleotides of the invention (see TABLE 2), evaluations were performed with Oligo 12 (having SEQ ID NO:1), Oligo 32 (SEQ ID NO:3) and Oligo 41 (SEQ ID NO:6). These evaluations were performed to determine the activity of these compounds against a variety of wild type and drug resistant strains of HIV 1, including both laboratory derived and low passage, clinical strains of virus and T lymphocyte tropic and monocyte macrophage tropic viruses such as those listed below in TABLE 3.

HIV-1 (IIIB, RF and SK1) = test: XTT-based anti-HIV assay, laboratory strains of HIV-1; assay type: cell-based
Text: (§1) The initial experiment performed involved evaluation of Oligos 12, 32, and 41 against three laboratory strains of HIV-1 (IIIB, RF and SK1) and one strain of HIV-2 (ROD) in parallel with the positive control compound ddC in the XTT-based anti-HIV assay. All these oligonucleotides are active against both HIV-1 and HIV-2.
CEM-SS sells (AIDS Research and Reference Reagent Program, NIH) or other established human T cell lines used in these experiments were passaged in T-150 flasks for use in the assay. On the day preceding the assay, the cells were split 1:2 to assure they would be in an exponential growth phase at time of infection. On the day of assay the cells were washed twice with tissue culture medium and resuspended in fresh tissue cultures medium. Total cell and viability counting was performed using a hemacytometer and trypan blue dye exclusion. Cell viability was greater than 95% for the cells to be utilized in the assay. The cells were pelleted and resuspended at 2.5×10^4 cells per ml in tissue culture medium. […]
A pretitered aliquot of virus was removed from the freezer −80° C.) and allowed to thaw slowly to room temperature in a biological safety cabinet. The virus was resuspended and diluted into tissue culture medium such that the amount of virus added to each well in a volume of 50 μl will be the amount determined to give complete cell killing at 6 days post-infection. […]
After 6 days of incubation at 37° C. in a 5% CO2 incubator, the test plates were analyzed by staining with the tetrazolium dye XTT. XTT-tetrazolium is metabolized by the mitochondrial enzymes of metabolically active cells to a soluble formazan product, allowing the rapid quantitative analysis of the inhibition of HIV-induced cell killing by anti-HIV test substances. […]
XTT solution was prepared daily as a stock of 1 mg/ml in PBS. […] Adhesive plate sealers were used in place of the lids, the sealed plate was inverted several times to mix the soluble formazan product and the plate was read spectrophotometrically at A450 nm with a Molecular Devices Vmax plate reader.

HIV-2 (ROD) = test: XTT-based anti-HIV assay, HIV-2; assay type: cell-based; conditions: XTT assay
Text: as §1
CEM-SS sells (AIDS Research and Reference Reagent Program, NIH) or other established human T cell lines used in these experiments were passaged in T-150 flasks for use in the assay. On the day preceding the assay, the cells were split 1:2 to assure they would be in an exponential growth phase at time of infection. On the day of assay the cells were washed twice with tissue culture medium and resuspended in fresh tissue cultures medium. Total cell and viability counting was performed using a hemacytometer and trypan blue dye exclusion. Cell viability was greater than 95% for the cells to be utilized in the assay. The cells were pelleted and resuspended at 2.5×10^4 cells per ml in tissue culture medium. Cells were added to the drug-containing plates in a volume of 50 μl.
A pretitered aliquot of virus was removed from the freezer −80° C.) and allowed to thaw slowly to room temperature in a biological safety cabinet. The virus was resuspended and diluted into tissue culture medium such that the amount of virus added to each well in a volume of 50 μl will be the amount determined to give complete cell killing at 6 days post-infection. In general the virus pools produced with the IIIB isolate of HIV required the addition of 5 μl of virus per well.
Each plate contained cell control wells (cells only), virus control wells (cells plus virus), drug toxicity control wells (cells plus drug only), drug colorimetric control wells (drug only) as well as experimental wells (drug plus cells plus virus).
After 6 days of incubation at 37° C. in a 5% CO2 incubator, the test plates were analyzed by staining with the tetrazolium dye XTT. XTT-tetrazolium is metabolized by the mitochondrial enzymes of metabolically active cells to a soluble formazan product, allowing the rapid quantitative analysis of the inhibition of HIV-induced cell killing by anti-HIV test substances. On day 6 post-infection plates were removed from the incubator and observed. The use of round bottom microtiter plates allows rapid macroscopic analysis of the activity of a given test compound by the evaluation of pellet size. The results of the macroscopic observations were confirmed and enhanced by further microscopic analysis.
XTT solution was prepared daily as a stock of 1 mg/ml in PBS. Phenazine methosulfate (PMS) solution was prepared at 15 mg/ml in PBS and stored in the dark at −20° C. XTT/PMS stock was prepared immediately before use by diluting the PMS 1:100 into PBS and adding 40 μl per ml of XTT solution. Fifty microliters of XTT/PMS was added to each well of the plate and the plate was incubated for an additional 4 hours at 37° C. Adhesive plate sealers were used in place of the lids, the sealed plate was inverted several times to mix the soluble formazan product and the plate was read spectrophotometrically at A450 nm with a Molecular Devices Vmax plate reader.

[2] = system: low passage, clinical strains of HIV-1; test: Anti-HIV activity in fresh human peripheral blood mononuclear cells; assay type: cell-based; conditions: fresh human PBMC; varies from strain to strain
Procedure: In another experiment, the anti-HIV activity of Oligos 12, 32, and 41 was evaluated against a variety of low passage, clinical strains of HIV-1 in fresh human peripheral blood mononuclear cells. These strains include viruses obtained from pediatric patients attending the Children's Hospital University of Alabama at Birmingham as well as viruses representative of the various HIV-1 clades found throughout the world, shown below in TABLE 4.
Fresh human peripheral blood lymphocytes (PBL) were isolated from voluntary Red Cross donors, seronegative for HIV and HBV. Leukophoresed blood was diluted 1:1 with Dulbecco's phosphate buffered saline (PBS), layered over 14 ml of Ficoll-Hypaque density gradient in a 50 ml centrifuge tube. Tubes were then centrifuged for 30 minutes at 600×g. Banded PBLs were gently aspirated from the resulting interface and subsequently washed 2× with PBS by low speed centrifugation. After final wash, cells were enumerated by trypan blue exclusion and re-suspended at 1×10^7/ml in RPMI 1640 with 15% Fetal Bovine Serum (FBS), 2 mM L-glutamine, […] PHA-P and allowed to incubate for 48–72 hours at 37° C. After incubation, PBLs were centrifuged and reset in RPMI 1640 with 15% FBS, 2 mM L-glutamine, 100 U/ml penicillin, 100 μg/ml streptomycin, 10 μg/ml gentamycin, and 20 U/ml recombinant human IL-2. PBLs were maintained in this medium at a concentration of 1–2×10^6/ml with bi-weekly medium changes, until use in assay protocol. […]
In the standard PBL assay (MOI: 0.2), the assay was ended on day 7 following collection of cell free supernatant samples for reverse transcriptase activity assay. In the low MOI PBL assay (MOI: 0.02), supernatant samples were collected on day 6, day 11, and day 14 post-infection and analyzed for RT activity. […] Opti-Fluor O was added to each sample and incorporated radioactivity was quantified utilizing a liquid scintillation counter, (Wallac 1450 Microbetaplus, Gaithersburg, Md.).

[3] = system: monocyte-macrophage-tropic strains BaL and ADA; test: Anti-HIV assay in fresh human monocyte-macrophages; assay type: cell-based, HIV-1
Procedure: In addition to these T-tropic strains, the activity of the compounds was also evaluated against the monocyte-macrophage strains BaL and ADA. Oligos 12 and 32 according to the invention, as well as Oligo 41 are active against low passage clinical T-tropic strains of HIV-1. The activity of the compounds varies from strain to strain. The compounds were not active against the monocyte-macrophage-tropic strains BaL and ADA.
For isolation of adherent cells, 3×10^6 non-PHA stimulated peripheral blood cells were resuspended in Hanks buffered saline (with calcium and magnesium) supplemented with 10% human AB serum. The cells were placed in a 24-well microtiter plate at 37° C. for 2 hours. Non-adherent cells were removed by vigorously washing six times. The adherent cells were cultured for 7 days in RPMI 1640 tissue culture medium with 15% fetal bovine serum. The cultures were carefully monitored for confluency during this incubation period. Infection of the cells was performed with the monocytotropic HIV-1 strains BaL or ADA and the matched pair of AZT-sensitive and AZT-resistant virus isolates. Each of these virus isolates was obtained from the NIAID AIDS Research and Reference Reagent Program. High titer pools of each of these viruses have been harvested from infected cultures of peripheral blood adherent cells and frozen in 1.0 ml aliquots at −80° C. Monocyte-macrophage monolayers were infected at an MOI of 0.1. Compounds to be evaluated in the monocyte-macrophage assay are added to the monolayers shortly before infection in order to maximize the potential for identifying active compounds.
At 2 days post-infection, the medium was decanted and the cultures washed twice with complete medium in order to remove excess virus. […] Control curves are generated in each assay to accurately quantify the amount of capsid protein in each sample. Data was obtained by spectrophotometric analysis at 450 nm using a plate reader (Molecular Devices Vmax). P24 concentrations were calculated from the optical density values by use of the Molecular Device software package Soft Max.

Question: With `Cc1cn([C@H]2C[C@H](N=[N+]=[N-])[C@@H](CO)O2)c(=O)[nH]c1=O` [AZT, 3′-azido-3′-deoxythymidine] as the compound, how does the IC50 ([1]; Human immunodeficiency virus 1, isolate BAKI, tropism L, read-out: AZT IC50) read?
Answer: Its IC50 is 0.049 µM.

Question: And the IC50 ([1]; Human immunodeficiency virus 1, isolate BLCH, tropism L, read-out: AZT IC50)?
Answer: Its IC50 is 0.01 µM.

Question: What about the IC50 ([1]; Human immunodeficiency virus 1, isolate DEJO, tropism L, read-out: AZT IC50) of the same compound?
Answer: Its IC50 is 0.015 µM.

Question: What about the IC50 ([1]; Human immunodeficiency virus 1, isolate RIARL, tropism L, read-out: AZT IC50) of the same compound?
Answer: Its IC50 is 0.01 µM.

Question: What about the IC50 ([1]; Human immunodeficiency virus 1, isolate ROJO, tropism L, read-out: AZT IC50) of the same compound?
Answer: Its IC50 is 0.016 µM.

Question: And the IC50 ([1]; Human immunodeficiency virus 1, isolate ROMA, tropism M, read-out: AZT IC50)?
Answer: Its IC50 is 0.016 µM.

Question: What about the IC50 ([1]; Human immunodeficiency virus 1, isolate SLKA, tropism M, read-out: AZT IC50) of the same compound?
Answer: The IC50 was 0.025 µM.

Question: What about the IC50 ([1]; Human immunodeficiency virus 1, isolate STDA, tropism L, read-out: AZT IC50) of the same compound?
Answer: The IC50 was 0.017 µM.

Question: And the IC50 ([1]; Human immunodeficiency virus 1, isolate TEKI, tropism L, read-out: AZT IC50)?
Answer: Its IC50 is 0.029 µM.

Question: And the IC50 ([1]; Human immunodeficiency virus 1, isolate TEKI, tropism M, read-out: AZT IC50)?
Answer: The IC50 was 0.016 µM.

Question: And the IC50 ([1]; Human immunodeficiency virus 1, isolate VIHU, tropism L, read-out: AZT IC50)?
Answer: Its IC50 is 0.016 µM.

Question: What about the IC50 ([1]; Human immunodeficiency virus 1, isolate WEJO, tropism L, read-out: AZT IC50) of the same compound?
Answer: The IC50 was 0.056 µM.

Question: What about the IC50 ([1]; Human immunodeficiency virus 1, isolate WOME, tropism L, read-out: AZT IC50) of the same compound?
Answer: Its IC50 is 0.016 µM.

Question: For “CGCACCCATCTCTCTCCUUCU (chemistry not given here) [Oligo 32]”, which “activity against HIV-1” value (HIV-1 (IIIB, RF and SK1)) is on record?
Answer: The value was “active”.

Question: And the “level of activity against the HIV-2 strain ROD” value (HIV-2 (ROD); compared with the HIV-1 strains)?
Answer: Its value is “enhanced level of activity”.

Question: And the “activity against HIV-2” value (HIV-2 (ROD); strain ROD)?
Answer: Its value is “active”.

Question: What about the “activity against low passage clinical T-tropic strains of HIV-1” value [2] of the same compound?
Answer: The value was “active”.

Question: And the “activity against monocyte-macrophage-tropic strains BaL and ADA” value [3]?
Answer: The value was “not active”.

Question: What does the source list for `O=c1[nH]cnc2c1ncn2[C@H]1CC[C@@H](CO)O1` [ddi, dideoxyinosine]?
Answer: IC50 ([1]; isolate BAKI, tropism L, read-out: ddi IC50): 2.61 µM; IC50 ([1]; isolate ROJO, tropism L, read-out: ddi IC50): 0.87 µM; IC50 ([1]; isolate ROMA, tropism M, read-out: ddi IC50): 0.16 µM; IC50 ([1]; isolate SLKA, tropism M, read-out: ddi IC50): 0.32 µM; IC50 ([1]; isolate STDA, tropism L, read-out: ddi IC50): 0.23 µM; IC50 ([1]; isolate TEKI, tropism L, read-out: ddi IC50): 0.37 µM; IC50 ([1]; isolate TEKI, tropism M, read-out: ddi IC50): 1.7 µM; IC50 ([1]; isolate VIHU, tropism L, read-out: ddi IC50): 1.21 µM; IC50 ([1]; isolate WEJO, tropism L, read-out: ddi IC50): 2.18 µM; IC50 ([1]; isolate WOME, tropism L, read-out: ddi IC50): 0.41 µM
